From PubChem BioAssay AID602135 (Sanford-Burnham Center for Chemical Genomics, 2011)
Calls of active or inactive are those of the source.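 Rule for the calls: active = mean IC50 under 10 µM against uracil DNA glycosylase, used as a counter screen; inactive = the rest.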

Target: Uracil-DNA glycosylase (Escherichia coli (strain K12)) (UniProt P12295)
Test: inhibitors of E. coli UDG, SAR follow-up, counter-screen for APOBEC3G deaminase inhibitor project, biochemical, UDG counterscreen (AID 602135)
Settings: FAM/TAMRA oligo fluorescence

Uracil-DNA glycosylase (Escherichia coli (strain K12)), sequence (P12295 whole entry, looked up): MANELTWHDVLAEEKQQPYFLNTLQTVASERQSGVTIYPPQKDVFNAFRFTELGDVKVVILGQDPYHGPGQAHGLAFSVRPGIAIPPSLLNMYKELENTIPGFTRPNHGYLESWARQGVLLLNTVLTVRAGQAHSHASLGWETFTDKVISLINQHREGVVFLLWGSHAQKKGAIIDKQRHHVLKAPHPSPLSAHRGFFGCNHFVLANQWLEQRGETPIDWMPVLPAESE

| SMILES | IC50 |
| --- | --- |
| C[n+]1cccc(C(=O)Nc2ccccc2)c1 | > 99 µM (inactive) |
| Nn1c(-c2cccc(Br)c2)n[nH]c1=S | > 99 µM (inactive) |
| Cc1ccc(C)n1Cc1ccc(C(=O)O)cc1 | > 99 µM (inactive) |
| Cn1nc([N+](=O)[O-])nc1S(C)(=O)=O | > 99 µM (inactive) |
| Cc1ccc2c(c1C)NC(C(=O)O)C1CC=CC21 (stereo not given) | > 99 µM (inactive) |
| CC1(C)Oc2ccc3ccc(=O)oc3c2/C(=C/NCCO)C1=O | > 99 µM (inactive) |
| CCCCn1c(=O)c2ccccc2n2c(=S)[nH]nc12 | > 99 µM (inactive) |
| O=C(NCc1ccc2c(c1)OCO2)c1cc2ncc(Br)cn2n1 | > 99 µM (inactive) |
| S=c1[nH]nc(NCCc2ccccc2)s1 | > 99 µM (inactive) |
| CCn1ncc(-c2ccnc3cc(C(=O)O)nn23)c1C | > 99 µM (inactive) |
| S=c1[nH]nc2c3c4c(sc3ncn12)CCCC4 | > 99 µM (inactive) |
| CC(C(=O)O)N1C(=O)/C(=C/C=C/c2ccco2)SC1=S (stereo not given) | > 99 µM (inactive) |
| Cc1ccc(-c2csc3n[nH]c(=S)n23)cc1 | > 99 µM (inactive) |
| CCOC(=O)c1ccc2c(c1)N(C)C(=O)c1ccccc1S2 | > 99 µM (inactive) |
| COc1ccc(-c2nc(=S)[nH][nH]2)cc1 | > 99 µM (inactive) |
| O=C1NC(=S)NC(=O)C1=Cc1ccc2c(c1)CCN2CCCCl | > 99 µM (inactive) |
| Cc1ccc[n+](CC(=O)Nc2cc(C(F)(F)F)ccc2N2CCOCC2)c1 | > 99 µM (inactive) |
| Cc1ccc2[nH]cc(/C=C/c3cc[n+](C)cc3)c2c1 | > 99 µM (inactive) |
| CCCCCn1c(=O)c2ccccc2n2c(=S)[nH]nc12 | > 99 µM (inactive) |
| O=C(NCc1ccc2c(c1)OCO2)c1nn2cccnc2c1Cl | > 99 µM (inactive) |
| CC(=O)c1ccc2c(c1)C1C=CCC1C(C(=O)O)N2 (stereo not given) | > 99 µM (inactive) |
| Cc1ccc(C=Nn2c(-c3ccco3)n[nH]c2=S)s1 | > 99 µM (inactive) |
| CCC(=O)Nc1cccc(-c2nnc(SCC(=O)NCc3ccco3)n2C)c1 | > 99 µM (inactive) |
| CC(C)(C)NC(=O)CSc1nc2ccc(NC(=O)CSc3nnc(N)s3)cc2s1 | > 99 µM (inactive) |
| COc1cc(C=Nn2c(-c3n[nH]c4c3CCC4)n[nH]c2=S)ccc1O | > 99 µM (inactive) |
